Test results from patent US9249145B2, “Heterocyclic derivatives of pyrazol-4-yl-pyrrolo[2,3-d]pyrimidines as janus kinase inhibitors” (Incyte Holdings Corporation, priority 2009, dated 2016).
Where a name gives a salt, the structure may show the parent alone. Read-outs that look alike come from different tables or passages of the source.

Columns and labels:
[1] = target: T1, human JAK1 (a.a. 837-1142) (Homo sapiens, UniProt P23458); experiment: In vitro JAK kinase assay (HTRF, phosphorylation of biotinylated peptide), JAK1; format: biochemical
T1 construct: The catalytic domains of human JAK1 (a.a. 837-1142); His tag (N); made in house; host or cells: insect cells (baculovirus)
Method: (§1) Compounds herein were tested for inhibitory activity of JAK targets according to the following in vitro assay described in Park et al., Analytical Biochemistry 1999, 269, 94-104. The catalytic domains of human JAK1 (a.a. 837-1142), Jak2 (a.a. 828-1132) and Jak3 (a.a. 781-1124) with an N-terminal His tag were expressed using baculovirus in insect cells and purified. The catalytic activity of JAK1, JAK2 or JAK3 was assayed by measuring the phosphorylation of a biotinylated peptide. The phosphorylated peptide was detected by homogenous time resolved fluorescence (HTRF). IC50s of compounds were measured for each kinase in the 40 microL reactions that contain the enzyme, ATP and 500 nM peptide in 50 mM Tris (pH 7.8) buffer with 100 mM NaCl, 5 mM DTT, and 0.1 mg/mL (0.01%) BSA. The ATP concentration in the reactions was 90 μM for Jak1, 30 μM for Jak2 and 3 μM for Jak3 for Km conditions. For the 1 mM IC50 measurements, ATP concentration in the reactions was 1 mM. Reactions were carried out at room temperature for 1 hr and then stopped with 20 μL 45 mM EDTA, 300 nM SA-APC, 6 nM Eu-Py20 in assay buffer (Perkin Elmer, Boston, Mass.). Binding to the Europium labeled antibody took place for 40 minutes and HTRF signal was measured on a Fusion plate reader (Perkin Elmer, Boston, Mass.). See Tables 1, 2, 3, and 4 for data related to compounds of the invention.

[2] = target: T2, Jak2 (a.a. 828-1132) (Homo sapiens, UniProt O60674); experiment: In vitro JAK kinase assay (HTRF, phosphorylation of biotinylated peptide), JAK2; format: biochemical
T2 construct: Jak2 (a.a. 828-1132); His tag (N); made in house; host or cells: insect cells (baculovirus)
Method: as §1

[3] = 1 mM ATP, Examples 92-162, read-out: JAK1 IC50 (nM) @ 1 mM ATP
[4] = 1 mM ATP, Examples 92-162, read-out: JAK2 IC50 (nM) @ 1 mM ATP
[5] = 1 mM ATP, Examples 12-91, read-out: JAK1 IC50 (nM) @ 1 mM ATP
[6] = 1 mM ATP, Examples 12-91, read-out: JAK2 IC50 (nM) @ 1 mM ATP
[7] = 1 mM ATP, Examples 1-11, read-out: IC50 (nM) @ 1 mM ATP JAK1
[8] = 1 mM ATP, Examples 1-11, read-out: IC50 (nM) @ 1 mM ATP JAK2
[9] = Km ATP (90 μM for Jak1), Examples 1-11, read-out: IC50 (nM) @ Km ATP JAK1
[10] = Km ATP (30 μM for Jak2), Examples 1-11, read-out: IC50 (nM) @ Km ATP JAK2

T2 sequence (O60674 828-1132): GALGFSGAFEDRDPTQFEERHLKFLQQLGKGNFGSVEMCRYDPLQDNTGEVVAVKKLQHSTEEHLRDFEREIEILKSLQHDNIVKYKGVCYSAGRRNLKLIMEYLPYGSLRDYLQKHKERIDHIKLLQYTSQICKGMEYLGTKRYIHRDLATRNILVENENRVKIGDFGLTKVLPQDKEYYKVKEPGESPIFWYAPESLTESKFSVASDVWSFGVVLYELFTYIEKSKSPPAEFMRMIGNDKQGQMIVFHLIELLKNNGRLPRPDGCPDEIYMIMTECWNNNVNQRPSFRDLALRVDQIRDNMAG
T1 sequence (P23458 849-1154): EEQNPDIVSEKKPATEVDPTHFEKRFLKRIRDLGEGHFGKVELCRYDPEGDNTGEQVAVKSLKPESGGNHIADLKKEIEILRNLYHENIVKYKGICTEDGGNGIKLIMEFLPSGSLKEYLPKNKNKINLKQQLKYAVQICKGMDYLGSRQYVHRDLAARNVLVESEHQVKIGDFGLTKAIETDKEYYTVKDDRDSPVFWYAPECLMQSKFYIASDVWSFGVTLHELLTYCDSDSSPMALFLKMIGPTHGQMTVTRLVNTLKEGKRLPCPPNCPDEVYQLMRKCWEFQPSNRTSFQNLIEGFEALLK

## N#CCC(CN1CCN(C(=O)c2ccc(C#N)cc2F)CC1CO)n1cc(-c2ncnc3[nH]ccc23)cn1 (single isomer, unassigned) [156—peak 4, 4-{[4-{3-cyano-2-[4-(7H-pyrrolo[2,3-d]pyrimidin-4-yl)-1H-pyrazol-1-yl]propyl}-3-(hydroxymethyl)piperazin-1-yl]carbonyl}-3-fluorobenzonitrile trifluoroacetate Salt]
[1]; [3]
  IC50: > 100 nM
[2]; [4]
  IC50: > 100 nM

## Cc1cc(C(=O)N2CCN(CC(CC#N)n3cc(-c4ncnc5[nH]ccc45)cn3)CC2)ccc1F (stereo not shown) [Example 37, 3-(4-(7H-pyrrolo[2,3-d]pyrimidin-4-yl)-1H-pyrazol-1-yl)-4-(4-(4-fluoro-3-methylbenzoyl)piperazin-1-yl)butanenitrile]
[1]; [5]
  IC50: < 10 nM
[2]; [6]
  IC50: 10 to 50 nM

## CC(CN1CCN(S(=O)(=O)c2ccn(C)n2)CC1)n1cc(-c2ncnc3[nH]ccc23)cn1 (stereo not shown) [Example 9, 4-[1-(1-methyl-2-{4-[(1-methyl-1H-pyrazol-3-yl)sulfonyl]piperazin-1-yl}ethyl)-1H-pyrazol-4-yl]-7H-pyrrolo[2,3-d]pyrimidine, phosphoric acid salt]
[1]; [7]
  IC50: < 10 nM
[2]; [8]
  IC50: > 20 nM

## CCC(CN1CCN(C(=O)c2ccc(O)cc2F)CC1)n1cc(-c2ncnc3[nH]ccc23)cn1 (stereo not shown) [Example 123, (4-(2-(4-(7H-pyrrolo[2,3-d]pyrimidin-4-yl)-1H-pyrazol-1-yl)butyl)piperazin-1-yl)(2-fluoro-4-hydroxyphenyl)methanone]
[1]; [3]
  IC50: < 20 nM
[2]; [4]
  IC50: < 20 nM

## CCC(CN1CCN(S(=O)(=O)c2cccc(C)n2)CC1)n1cc(-c2ncnc3[nH]ccc23)cn1 (stereo not shown) [Example 131, 4-(1-(1-(4-(6-methylpyridin-2-ylsulfonyl)piperazin-1-yl)butan-2-yl)-1H-pyrazol-4-yl)-7H-pyrrolo[2,3-d]pyrimidine]
[1]; [3]
  IC50: < 20 nM
[2]; [4]
  IC50: 20 to 50 nM

## N#CCC(CN1CCN(C(=O)Nc2ccc(F)cc2F)CC1)n1cc(-c2ncnc3[nH]ccc23)cn1 (stereo not shown) [Example 72, 4-(2-(4-(7H-pyrrolo[2,3-d]pyrimidin-4-yl)-1H-pyrazol-1-yl)-3-cyanopropyl)-N-(2,4-difluorophenyl)piperazine-1-carboxamide]
[1]; [5]
  IC50: 10 to 50 nM
[2]; [6]
  IC50: 50 to 100 nM

## 4-(4-(2-(4-(7H-pyrrolo[2,3-d]pyrimidin-4-yl)-1H-pyrazol-1-yl)-3-cyanopropyl)piperazine-1-carbonyl)-3-hydroxybenzonitrile [Example 77]
[1]; [5]
  IC50: < 10 nM
[2]; [6]
  IC50: 10 to 50 nM

## N#CCC(CN1CCN(C(=O)c2ncc(C(F)(F)F)cc2F)CC1)n1ccc(-c2ncnc3[nH]ccc23)c1 (stereo not shown) [Example 89, 3-(3-(7H-pyrrolo[2,3-d]pyrimidin-4-yl)-1H-pyrrol-1-yl)-4-(4-(3-fluoro-5-(trifluoromethyl)picolinoyl)piperazin-1-yl)butanenitrile]
[1]; [5]
  IC50: 10 to 50 nM
[2]; [6]
  IC50: > 100 nM

## N#CCC(CN1CCN(C(=O)c2cc(C(F)(F)F)ccc2F)CC1)n1cc(-c2ncnc3[nH]ccc23)cn1 (stereo not shown) [Example 32, 3-(4-(7H-pyrrolo[2,3-d]pyrimidin-4-yl)-1H-pyrazol-1-yl)-4-(4-(2-fluoro-5-(trifluoromethyl)benzoyl)piperazin-1-yl)butanenitrile]
[1]; [5]
  IC50: < 10 nM
[2]; [6]
  IC50: < 10 nM

## N#CCC(CN1CCN(C(=O)c2ccc(F)cc2F)CC1)n1ccc(-c2ncnc3[nH]ccc23)c1 (stereo not shown) [Example 90, 3-(3-(7H-pyrrolo[2,3-d]pyrimidin-4-yl)-1H-pyrrol-1-yl)-4-(4-(2,4-difluorobenzoyl)piperazin-1-yl)butanenitrile]
[1]; [5]
  IC50: < 10 nM
[2]; [6]
  IC50: < 10 nM

## CC(CN1CCN(S(=O)(=O)c2ccn(C)n2)CC1)n1cc(-c2ncnc3[nH]ccc23)cn1 (stereo not shown) [Example 11, 4-[1-(1-methyl-2-{4-[(1-methyl-1H-pyrazol-3-yl)sulfonyl]piperazin-1-yl}ethyl)-1H-pyrazol-4-yl]-7H-pyrrolo[2,3-d]pyrimidine bis(phosphate) Salt]
[1]; [7]
  IC50: < 10 nM
[2]; [8]
  IC50: > 20 nM

## Cn1ccc(S(=O)(=O)N2CCC(CC(CC#N)n3cc(-c4ncnc5[nH]ccc45)cn3)CC2)n1 (stereo not shown) [Example 7, 4-{1-[(1-methyl-1H-pyrazol-3-yl)sulfonyl]piperidin-4-yl}-3-[4-(7H-pyrrolo[2,3-d]pyrimidin-4-yl)-1H-pyrazol-1-yl]butanenitrile]
[1]; [7]
  IC50: < 10 nM
[1]; [9]
  IC50: < 10 nM
[2]; [8]
  IC50: < 10 nM
[2]; [10]
  IC50: < 10 nM

## N#CCC(CN1CCN(C(=O)Nc2c(Cl)cccc2Cl)CC1)n1cc(-c2ncnc3[nH]ccc23)cn1 (stereo not shown) [Example 70, 4-(2-(4-(7H-pyrrolo[2,3-d]pyrimidin-4-yl)-1H-pyrazol-1-yl)-3-cyanopropyl)-N-(2,6-dichlorophenyl)piperazine-1-carboxamide]
[1]; [5]
  IC50: 10 to 50 nM
[2]; [6]
  IC50: 50 to 100 nM

## Cc1c(Nc2ccccc2)ncnc1N1CCC(C(CC#N)n2cc(-c3ncnc4[nH]ccc34)cn2)CC1 (stereo not shown) [Example 146, 3-[1-(6-anilino-5-methylpyrimidin-4-yl)piperidin-4-yl]-3-[4-(7H-pyrrolo[2,3-d]pyrimidin-4-yl)-1H-pyrazol-1-yl]propanenitrile]
[1]; [3]
  IC50: 20 to 50 nM
[2]; [4]
  IC50: > 100 nM

## N#CCC(CN1CCN(C(=O)c2cccs2)CC1)n1cc(-c2ncnc3[nH]ccc23)cn1 (stereo not shown) [Example 42, 3-(4-(7H-pyrrolo[2,3-d]pyrimidin-4-yl)-1H-pyrazol-1-yl)-4-(4-(thiophene-2-carbonyl)piperazin-1-yl)butanenitrile]
[1]; [5]
  IC50: < 10 nM
[2]; [6]
  IC50: 10 to 50 nM

## CCC(CN1CCN(S(=O)(=O)c2cc(F)ccc2F)CC1)n1cc(-c2ncnc3[nH]ccc23)cn1 (stereo not shown) [Example 141, 4-(1-(1-(4-(2,5-difluorophenylsulfonyl)piperazin-1-yl)butan-2-yl)-1H-pyrazol-4-yl)-7H-pyrrolo[2,3-d]pyrimidine]
[1]; [3]
  IC50: < 20 nM
[2]; [4]
  IC50: 50 to 100 nM

## Cn1ccc(S(=O)(=O)N2CCN(CC(CC#N)n3cc(-c4ncnc5[nH]ccc45)cn3)CC2)n1 (stereo not shown) [Example 4, 4-{4-[(1-methyl-1H-pyrazol-3-yl)sulfonyl]piperazin-1-yl}-3-[4-(7H-pyrrolo[2,3-d]pyrimidin-4-yl)-1H-pyrazol-1-yl]butanenitrile]
[1]; [7]
  IC50: < 10 nM
[1]; [9]
  IC50: < 10 nM
[2]; [8]
  IC50: < 10 nM
[2]; [10]
  IC50: < 10 nM

## CCC(CN1CCN(C(=O)c2cccs2)CC1)n1cc(-c2ncnc3[nH]ccc23)cn1 (stereo not shown) [Example 126, (4-(2-(4-(7H-pyrrolo[2,3-d]pyrimidin-4-yl)-1H-pyrazol-1-yl)butyl)piperazin-1-yl)(thiophen-2-yl)methanone]
[1]; [3]
  IC50: 20 to 50 nM
[2]; [4]
  IC50: > 100 nM

## N#CCC(CN1CCN(C(=O)c2cc(OC(F)(F)F)ccc2F)CC1)n1cc(-c2ncnc3[nH]ccc23)cn1 (stereo not shown) [Example 41, 3-(4-(7H-pyrrolo[2,3-d]pyrimidin-4-yl)-1H-pyrazol-1-yl)-4-(4-(2-fluoro-5-(trifluoromethoxy)benzoyl)piperazin-1-yl)butanenitrile]
[1]; [5]
  IC50: < 10 nM
[2]; [6]
  IC50: 10 to 50 nM

## N#CCC(CC1CCN(C(=O)c2ccc(F)cc2F)CC1)n1cc(-c2ncnc3[nH]ccc23)cn1 (stereo not shown) [Example 6, 4-[1-(2,4-difluorobenzoyl)piperidin-4-yl]-3-[4-(7H-pyrrolo[2,3-d]pyrimidin-4-yl)-1H-pyrazol-1-yl]butanenitrile]
[1]; [9]
  IC50: < 10 nM
[2]; [10]
  IC50: < 10 nM

## N#CCC(CN1CCN(C(=O)c2ccc(Cl)cn2)CC1)n1cc(-c2ncnc3[nH]ccc23)cn1 (stereo not shown) [Example 38, 3-(4-(7H-pyrrolo[2,3-d]pyrimidin-4-yl)-1H-pyrazol-1-yl)-4-(4-(5-chloropicolinoyl)piperazin-1-yl)butanenitrile]
[1]; [5]
  IC50: < 10 nM
[2]; [6]
  IC50: 10 to 50 nM
